Experimental data reported in EP3483233A1, “LUBRICANT BASE OIL COMPOSITIONS OF MONO-UNSATURATED DIBASIC ACID ESTERS WITH BRANCHED ALCOHOLS” (ARKEMA FRANCE, priority 2017, dated 2019).

Legend:
Assay type in all cases: physicochemical
[1] = Pour point and cloud point, cooling regime of ASTM D97
Description: Pour points and cloud points were determined using the same thermal cooling regime, as instructed by ASTM D97. The sample sizes were 5 to 15 mL during the measurements.
Cloud points were determined during the same run by visual inspection of the sample appearance at low temperature. The samples were removed from the freezer every 3°C for visual inspection and, if cloudy, meniscus movement with inversion. The pour point resembled the last measurement, at which the meniscus boundary was still moving within 5 seconds of horizontal inversion. All samples were tested in duplicate.
In engine oils and hydraulic fluids, low temperature fluidity is primarily determined by pour points [ASTM D97]. Generally, pour points below -30°C are considered sufficient. Some polymer additives, e.g. "Pour Point Depressants" (PPD), are able to improve low temperature fluidity. […] Therefore, initially pour points and cloud points [ASTM D2500 "Standard Test Method for Cloud Point of Petroleum Products and Liquid Fuels"] of α-ω dibasic esters were evaluated and shown in Table 4.

[2] = Kinematic viscosity with capillary Cannon-Fenske viscometers; Viscosity Index calculated per ASTM D2270
Description: Kinematic viscosities at 40°C and 100°C were measured using capillary Cannon-Fenske viscometers per ASTM […]. Viscosity Index (the value, describing the rate of thinning with increasing temperature) was calculated per ASTM D2270.

[3] = Thin film test, volatile losses (500 µm oil film on steel coupon, forced-draft oven, gravimetric); conditions: 500 µm thick films at 120°C
Excerpt: (§1) The exact procedure, used here, has been described in detail by Stoncius, A. et al. in "Volatiles from Thin Film Degradation of Bio-based, Synthetic and Mineral Basestocks", published in Industrial Lubrication & Tribology, 2013, 65 (3) 209-215, 2013, Emerald Group Publishing Edition or by Brazinskiene, D. et al. in "Ester Basestock Vaporisation from Thin Oil Films", published in Lubrication Science, DOI: 10.1002/ls.1372, pp 1-17, 2017, Wiley Edition.
(§2) Briefly, an oil film of 500 µm thickness was coated on steel coupon and heated at given temperature for specific duration in a forced-draft oven. Afterwards, the volatile losses and insoluble residues were measured gravimetrically.
As discussed in the prior-art review, volatility can be successfully evaluated in a thin film test as described by Stoncius, A. et al. in "Volatiles from Thin Film Degradation of Bio-based, Synthetic and Mineral Basestocks" published in Industrial Lubrication & Tribology, 2013, 65 (3) 209-215, Emerald Group Publishing Edition or by Brazinskiene, D. et al. in "Ester Basestock Vaporisation from Thin Oil Films" published in Lubrication Science, DOI: 10.1002/ls.1372, pp 1-17, 2017, Wiley Edition. This thin-film method is much better suited for hydraulic fluid applications than NOACK or other tests, which employ 250°C or similar temperatures, related to engine oil applications. Also, the above method accounts for longer term decomposition reactions due to exposure to metal surfaces and oxidation, which is prevalent in hydraulic applications. Therefore, using the thin-film method short-term vapor losses were measured after 16 hrs and decomposition trends were compared after 36 hrs of testing. Heating temperature of 120°C was selected to compare thin films of α,ω dibasic esters with commercial basestocks. Table 5. Volatile emissions, % w/w from 500 µm thick films of α-ω dibasic esters and commercial basestocks at 120°C

[4] = Solubility of lubricant additives in the basestocks
Description: Several typical lubricant additives have been tested for solubility in α-ω dibasic esters of 2-ethyl hexanol 26U18 and 26S12 as well as commercial basestock 350N. The additives were mixed in at temperatures of 50°C or lower and held for longer than a week at room temperature. Table 7. Solubility of lubricant additives, dissolved in α-ω dibasic esters and commercial basestocks
The additives were selected to represent different chemical categories: soaps, heterocycles, phosphorous derivatives, polymers, etc. Most of these additives are designed to be dissolved in paraffinic mineral oils and synthetic lubricants with some heating. It is often thought that esters are better solvents than mineral oils or synthetic hydrocarbons like poly α-olefins. Therefore, the tested concentrations were much higher than additive proportions for hydraulic fluids, as recommended by the additive manufacturers.

[5] = Thin film test, oxidative stability (time to insoluble residues and to solidification); conditions: 500 µm thick films at 120°C
Excerpt: as §1, §2
Therefore, thin films of commercial basestocks and α-ω dibasic esters were compared by exposing their thin films to 120°C as described by Stoncius, A. et al. in "Volatiles from Thin Film Degradation of Bio-based, Synthetic and Mineral Basestocks" published in Industrial Lubrication & Tribology, 2013, 65 (3), 209-215, Emerald Group Publishing Edition or by Brazinskiene, D. et al. in "Ester Basestock Vaporisation from Thin Oil Films" published in Lubrication Science, DOI: 10.1002/ls.1372, pp 1-17, 2017, Wiley Edition.
The thin-film method determines how resistant oil is against formation of insoluble residues during oxidation. Degradation durations until initial formation of solid residues and complete solidification directly relate to oxidative stability.

- Pour point, °C [1]: -57 °C
- Cloud point, °C ([1]; visual inspection during the same run): -36 °C
- Viscosity Index ([2]; calculated per ASTM D2270 from viscosities at 40°C and 100°C): 197
- Viscosity, mm^2/s at 40°C ([2]; kinematic viscosity at 40°C): 22.74 mm^2/s
- Viscosity, mm^2/s at 100°C ([2]; kinematic viscosity at 100°C): 5.53 mm^2/s
- Volatile emissions, 16 hrs ([3]; 16 hrs): 5.5 % w/w
- Volatile emissions, 36 hrs ([3]; 36 hrs): 10.7 % w/w
- Solubility of 1% w/w Vanlube 7723 ([4]; Alkyl dithiocarbamate, mixed in at 50°C or lower, held longer than a week at room temperature): soluble
- Solubility of 1% w/w Irgalube ML605A ([4]; Amine and phosphate derivatives, mixed in at 50°C or lower, held longer than a week at room temperature): soluble
- Solubility of 1% w/w Vanlube 7611 M ([4]; Phosphoro dithioate, mixed in at 50°C or lower, held longer than a week at room temperature): soluble
- Solubility of 5% w/w Viscoplex 10-310 ([4]; Poly alkyl methacrylate, mixed in at 50°C or lower, held longer than a week at room temperature): soluble
- Solubility of 2% w/w Vanlube RI- A ([4]; Soap and ester derivatives, mixed in at 50°C or lower, held longer than a week at room temperature): soluble
- Solubility of 1% w/w Cobratec TT-100 ([4]; Tolyl triazole, mixed in at 50°C or lower, held longer than a week at room temperature): soluble
- Initial solution appearance ([4]; all tested additives blended in, unchanged after 1 week at room temperature): bright and clear
- Full solidification observed [5]: 320 h
- Initial residues observed [5]: 248 h
- Vapor loss at solidification ([5]; at the duration of full film solidification): 57% w/w
Substance: 1,18-di(2-ethylhexyl) octadec-9-enedioate [26U18]
